Results reported in ChEMBL document CHEMBL1154681, “Structural aspects of flavonoids as inhibitors of human butyrylcholinesterase” (Eur J Med Chem, 2010).
Calls of active or inactive are those of the source. The rule behind the calls is not given here.

Experiments:
[1] = system: THP-1; experiment: Cytotoxicity against human THP1 cells after 24 hrs by MTS assay; type: cell-based
[2] = system: HepG2; experiment: Cytotoxicity against human HepG2 cells upto 200 umol/L after 24 hrs by MTS assay; type: cell-based; conditions: hepg2, 24 h
[3] = molecular target: T1, Cholinesterase (Homo sapiens, UniProt P06276); experiment: Inhibition of human plasma BChE by Ellman's method
[4] = molecular target: Acetylcholinesterase (Homo sapiens, UniProt P22303); experiment: Inhibition of human recombinant AChE by Ellman's method
[5] = system: A549; experiment: Cytotoxicity against human A549 cells upto 200 umol/L after 24 hrs by MTS assay; type: cell-based; conditions: a549, 24 h
[6] = Stability in phosphate buffer at pH 7.4 after 90 mins by spectrophotometry; type: physicochemical; conditions: pH 7.4, 1.5 h
[7] = molecular target: T1, Cholinesterase; experiment: Inhibition of human plasma BChE upto 45 mins at 100 umol/L by Ellman's method; type: cell-free

Chain of Acetylcholinesterase (P22303 whole entry): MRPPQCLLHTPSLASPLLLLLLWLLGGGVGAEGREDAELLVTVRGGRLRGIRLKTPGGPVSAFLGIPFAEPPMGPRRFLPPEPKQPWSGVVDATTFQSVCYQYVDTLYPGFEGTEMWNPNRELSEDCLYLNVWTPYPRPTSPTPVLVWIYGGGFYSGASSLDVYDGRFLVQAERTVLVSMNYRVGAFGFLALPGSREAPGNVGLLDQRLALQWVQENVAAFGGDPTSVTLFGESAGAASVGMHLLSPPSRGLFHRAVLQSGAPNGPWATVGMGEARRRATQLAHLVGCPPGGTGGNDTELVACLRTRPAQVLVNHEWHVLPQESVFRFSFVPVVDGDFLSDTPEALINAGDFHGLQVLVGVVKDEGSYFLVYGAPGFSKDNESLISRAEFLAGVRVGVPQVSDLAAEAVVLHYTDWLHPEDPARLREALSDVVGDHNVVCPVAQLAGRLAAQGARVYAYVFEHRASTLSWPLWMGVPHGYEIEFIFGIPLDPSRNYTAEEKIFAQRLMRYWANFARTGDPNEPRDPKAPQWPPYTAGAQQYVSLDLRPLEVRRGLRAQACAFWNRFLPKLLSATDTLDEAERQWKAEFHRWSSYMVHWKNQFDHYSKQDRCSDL
T1 sequence (P06276 whole entry): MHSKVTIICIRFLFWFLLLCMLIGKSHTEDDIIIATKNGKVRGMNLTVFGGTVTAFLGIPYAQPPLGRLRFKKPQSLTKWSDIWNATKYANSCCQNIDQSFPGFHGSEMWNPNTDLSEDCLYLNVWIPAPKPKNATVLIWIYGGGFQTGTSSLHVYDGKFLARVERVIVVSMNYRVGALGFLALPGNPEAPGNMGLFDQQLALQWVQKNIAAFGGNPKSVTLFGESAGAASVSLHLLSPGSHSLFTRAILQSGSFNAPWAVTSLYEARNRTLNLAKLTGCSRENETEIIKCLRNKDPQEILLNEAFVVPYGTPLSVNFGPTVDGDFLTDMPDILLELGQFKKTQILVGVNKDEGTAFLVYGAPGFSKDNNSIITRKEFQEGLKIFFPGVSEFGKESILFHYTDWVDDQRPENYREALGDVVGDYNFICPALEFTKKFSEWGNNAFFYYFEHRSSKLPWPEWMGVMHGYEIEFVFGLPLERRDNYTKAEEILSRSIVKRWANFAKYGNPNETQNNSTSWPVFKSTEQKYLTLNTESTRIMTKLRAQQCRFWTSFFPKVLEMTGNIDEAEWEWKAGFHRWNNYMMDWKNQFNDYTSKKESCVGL

With `O=c1cc(-c2ccc(O)cc2)oc2cc(O)cc(O)c12` [APIGENIN] the IC50 [1] was 60 microM/L, the Activity [2] was “Non-toxic” and the Ki [3] was 37.4 microM/L. The Ki [4] was 121.6 microM/L, the Activity [5] was “Non-toxic” and the Stability [6] was “Unstable”.
In the case of `O=c1c(O)c(-c2ccc(O)c(O)c2)oc2cc(O)ccc12` [FISETIN], the IC50 [1] was 30 microM/L, the Activity [2] was “Non-toxic” and the Ki [3] was 90 microM/L. For the same compound, the Ki [4] was 100.2 microM/L, the Activity [5] was “Non-toxic” and the Stability [6] was “Unstable”.
With `O=c1c(O)c(-c2ccccc2)oc2cc(O)cc(O)c12` [GALANGIN] the Activity [2] was “Non-toxic”, the Ki [3] was 6.9 microM/L and the Ki [4] was 85.6 microM/L. The Activity [5] was “Non-toxic” and the Stability [6] was “Unstable”.
With `O=c1c(O)c(-c2ccc(O)cc2)oc2cc(O)cc(O)c12` [KAEMPFEROL] the Activity [2] was “Non-toxic”, the Ki [3] was 43.1 microM/L and the Ki [4] was 92.8 microM/L. For the same compound, the Activity [5] was “Non-toxic”, the Stability [6] was “Unstable” and the inhibition [7] was “inactive”.
With `O=c1cc(-c2ccc(O)c(O)c2)oc2cc(O)cc(O)c12` [LUTEOLIN] the IC50 [1] was 70 microM/L, the Activity [2] was “Non-toxic” and the Ki [3] was 166.1 microM/L. The Ki [4] was 65.8 microM/L, the Activity [5] was “Non-toxic” and the Stability [6] was “Unstable”.
For `O=c1c(O)c(-c2cc(O)c(O)c(O)c2)oc2cc(O)cc(O)c12` [MYRICETIN], the Activity [2] was “Non-toxic”, the Ki [3] was 71 microM/L and the Ki [4] was 37.8 microM/L. The Activity [5] was “Non-toxic” and the inhibition [7] was “inactive”.
With `O=c1c(O)c(-c2ccc(O)c(O)c2)oc2cc(O)cc(O)c12` [QUERCETIN] the Activity [2] was “Non-toxic”, the Ki [3] was 68 microM/L and the Ki [4] was 38.3 microM/L. The Activity [5] was “Non-toxic” and the Stability [6] was “Unstable”.
In the case of `C[C@@H]1O[C@@H](OC[C@H]2O[C@@H](Oc3c(-c4ccc(O)c(O)c4)oc4cc(O)cc(O)c4c3=O)[C@H](O)[C@@H](O)[C@@H]2O)[C@H](O)[C@H](O)[C@H]1O` [RUTIN], the Activity [2] was “Non-toxic”, the Ki [3] was 501.2 microM/L and the Ki [4] was > 300 microM/L. For the same compound, the Activity [5] was “Non-toxic” and the Stability [6] was “Stable”.
